pIC50: −log10 of the molar value.
Columns and labels:
Format in all cases: cell-based
[1] = target: ALK tyrosine kinase receptor (Homo sapiens, UniProt Q9UM73); assay: (§1) Sci. USA 1988, 85(23), 9312). Specific steps were as follows: The compound of the present invention was dissolved in dimethyl sulfoxide (DMSO) to make a stock solution of 2 mM, then the stock solution was diluted with DMSO following a 7 half-log series to concentrations ranging from 2 uM to 600 pM.
[2] = target: Hepatocyte growth factor receptor (Homo sapiens, UniProt P08581); assay: as §1
Hepatocyte growth factor receptor, sequence (P08581 whole entry): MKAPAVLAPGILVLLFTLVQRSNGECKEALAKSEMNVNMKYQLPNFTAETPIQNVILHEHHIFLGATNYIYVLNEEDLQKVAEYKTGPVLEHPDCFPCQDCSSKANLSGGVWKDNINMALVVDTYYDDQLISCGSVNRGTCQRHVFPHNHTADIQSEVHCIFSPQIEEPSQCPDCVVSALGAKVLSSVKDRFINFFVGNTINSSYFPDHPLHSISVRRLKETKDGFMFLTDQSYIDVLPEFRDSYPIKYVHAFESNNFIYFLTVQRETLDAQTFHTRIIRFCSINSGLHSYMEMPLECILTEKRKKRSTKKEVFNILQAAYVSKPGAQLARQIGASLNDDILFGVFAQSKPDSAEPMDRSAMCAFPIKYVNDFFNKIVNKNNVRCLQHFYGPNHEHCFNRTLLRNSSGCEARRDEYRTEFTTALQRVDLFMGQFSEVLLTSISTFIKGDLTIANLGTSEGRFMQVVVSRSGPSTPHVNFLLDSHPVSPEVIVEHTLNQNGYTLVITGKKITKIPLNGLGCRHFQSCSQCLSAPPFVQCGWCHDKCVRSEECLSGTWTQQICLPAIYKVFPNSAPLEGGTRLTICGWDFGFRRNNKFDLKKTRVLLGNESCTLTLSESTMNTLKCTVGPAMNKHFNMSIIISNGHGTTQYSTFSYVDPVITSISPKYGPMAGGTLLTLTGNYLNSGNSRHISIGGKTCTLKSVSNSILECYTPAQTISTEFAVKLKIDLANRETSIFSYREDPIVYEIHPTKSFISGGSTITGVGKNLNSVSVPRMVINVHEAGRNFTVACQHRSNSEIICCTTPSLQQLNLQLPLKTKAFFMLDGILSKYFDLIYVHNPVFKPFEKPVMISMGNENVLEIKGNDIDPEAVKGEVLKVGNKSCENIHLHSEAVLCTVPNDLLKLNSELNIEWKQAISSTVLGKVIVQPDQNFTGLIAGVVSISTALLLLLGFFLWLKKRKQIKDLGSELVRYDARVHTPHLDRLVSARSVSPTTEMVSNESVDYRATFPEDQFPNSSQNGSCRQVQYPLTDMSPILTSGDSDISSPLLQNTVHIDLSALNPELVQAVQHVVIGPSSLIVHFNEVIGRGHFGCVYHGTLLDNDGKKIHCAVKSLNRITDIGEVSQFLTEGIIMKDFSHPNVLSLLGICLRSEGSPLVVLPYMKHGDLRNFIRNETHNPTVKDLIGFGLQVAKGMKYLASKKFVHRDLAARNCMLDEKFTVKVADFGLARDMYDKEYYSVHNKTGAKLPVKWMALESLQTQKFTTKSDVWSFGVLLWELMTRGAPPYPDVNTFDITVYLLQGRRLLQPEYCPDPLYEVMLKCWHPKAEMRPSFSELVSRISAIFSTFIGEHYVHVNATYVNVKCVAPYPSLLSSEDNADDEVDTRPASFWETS

[3] = target: T1, Tyrosine-protein kinase receptor UFO (Homo sapiens, UniProt P30530); assay: as §1
T1 sequence (P30530 whole entry): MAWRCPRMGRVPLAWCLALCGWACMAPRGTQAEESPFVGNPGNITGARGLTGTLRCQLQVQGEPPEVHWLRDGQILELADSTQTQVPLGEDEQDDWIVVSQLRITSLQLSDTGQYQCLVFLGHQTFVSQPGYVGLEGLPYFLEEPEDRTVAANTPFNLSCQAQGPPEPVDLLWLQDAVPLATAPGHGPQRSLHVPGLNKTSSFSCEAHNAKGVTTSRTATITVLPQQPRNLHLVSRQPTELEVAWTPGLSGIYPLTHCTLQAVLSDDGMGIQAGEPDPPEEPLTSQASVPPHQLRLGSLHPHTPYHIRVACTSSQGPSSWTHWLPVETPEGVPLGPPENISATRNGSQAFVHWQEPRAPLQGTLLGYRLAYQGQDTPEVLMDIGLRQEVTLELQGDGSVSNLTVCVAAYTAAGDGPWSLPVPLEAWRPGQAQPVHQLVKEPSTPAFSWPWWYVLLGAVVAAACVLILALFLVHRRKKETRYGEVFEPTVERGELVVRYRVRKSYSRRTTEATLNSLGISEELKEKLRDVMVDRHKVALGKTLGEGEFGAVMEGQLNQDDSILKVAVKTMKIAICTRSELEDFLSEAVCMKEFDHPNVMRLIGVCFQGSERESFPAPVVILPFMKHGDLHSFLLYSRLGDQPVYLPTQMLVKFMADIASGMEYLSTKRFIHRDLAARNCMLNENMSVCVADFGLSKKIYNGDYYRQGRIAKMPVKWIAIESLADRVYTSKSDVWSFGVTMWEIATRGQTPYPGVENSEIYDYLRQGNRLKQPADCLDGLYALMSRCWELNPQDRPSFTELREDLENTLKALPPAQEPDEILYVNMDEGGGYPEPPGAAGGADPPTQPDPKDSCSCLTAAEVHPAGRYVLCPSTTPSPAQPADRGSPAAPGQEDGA

[4] = target: Vascular endothelial growth factor receptor 2 (Homo sapiens, UniProt P35968); assay: as §1
Vascular endothelial growth factor receptor 2, sequence (P35968 whole entry): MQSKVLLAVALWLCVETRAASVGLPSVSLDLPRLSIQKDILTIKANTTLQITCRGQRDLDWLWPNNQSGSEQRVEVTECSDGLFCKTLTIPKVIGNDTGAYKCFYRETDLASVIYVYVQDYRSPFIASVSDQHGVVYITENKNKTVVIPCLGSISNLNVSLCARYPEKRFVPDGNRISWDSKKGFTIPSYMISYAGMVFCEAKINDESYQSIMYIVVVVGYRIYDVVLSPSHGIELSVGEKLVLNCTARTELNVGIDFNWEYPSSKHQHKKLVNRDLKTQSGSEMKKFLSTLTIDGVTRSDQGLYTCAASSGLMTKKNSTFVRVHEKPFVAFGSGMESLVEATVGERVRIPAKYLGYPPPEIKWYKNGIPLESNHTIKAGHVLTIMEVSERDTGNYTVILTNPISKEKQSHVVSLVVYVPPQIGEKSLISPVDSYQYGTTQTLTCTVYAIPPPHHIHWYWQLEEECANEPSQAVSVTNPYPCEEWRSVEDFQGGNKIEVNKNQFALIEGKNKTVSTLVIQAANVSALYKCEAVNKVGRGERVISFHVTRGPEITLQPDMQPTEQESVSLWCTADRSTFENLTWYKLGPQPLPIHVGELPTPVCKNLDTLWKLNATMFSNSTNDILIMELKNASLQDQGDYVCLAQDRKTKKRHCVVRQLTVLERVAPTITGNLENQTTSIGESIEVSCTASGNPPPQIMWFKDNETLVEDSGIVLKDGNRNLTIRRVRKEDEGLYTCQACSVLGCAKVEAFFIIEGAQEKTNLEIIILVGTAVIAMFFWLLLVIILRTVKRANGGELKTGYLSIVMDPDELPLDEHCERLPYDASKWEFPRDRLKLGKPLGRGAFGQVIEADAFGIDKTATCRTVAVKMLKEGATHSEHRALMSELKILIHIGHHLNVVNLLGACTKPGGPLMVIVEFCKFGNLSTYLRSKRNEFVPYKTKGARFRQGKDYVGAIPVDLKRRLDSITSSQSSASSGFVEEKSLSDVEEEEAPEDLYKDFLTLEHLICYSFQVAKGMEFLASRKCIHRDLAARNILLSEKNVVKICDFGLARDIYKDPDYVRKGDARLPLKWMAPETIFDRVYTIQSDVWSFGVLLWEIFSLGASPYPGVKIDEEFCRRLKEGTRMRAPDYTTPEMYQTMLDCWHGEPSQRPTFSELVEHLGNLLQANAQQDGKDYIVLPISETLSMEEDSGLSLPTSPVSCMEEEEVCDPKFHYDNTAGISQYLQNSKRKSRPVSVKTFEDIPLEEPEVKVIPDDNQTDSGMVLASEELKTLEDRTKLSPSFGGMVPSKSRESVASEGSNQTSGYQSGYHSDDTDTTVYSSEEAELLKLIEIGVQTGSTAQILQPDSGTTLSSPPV

ALK tyrosine kinase receptor, sequence (Q9UM73 whole entry): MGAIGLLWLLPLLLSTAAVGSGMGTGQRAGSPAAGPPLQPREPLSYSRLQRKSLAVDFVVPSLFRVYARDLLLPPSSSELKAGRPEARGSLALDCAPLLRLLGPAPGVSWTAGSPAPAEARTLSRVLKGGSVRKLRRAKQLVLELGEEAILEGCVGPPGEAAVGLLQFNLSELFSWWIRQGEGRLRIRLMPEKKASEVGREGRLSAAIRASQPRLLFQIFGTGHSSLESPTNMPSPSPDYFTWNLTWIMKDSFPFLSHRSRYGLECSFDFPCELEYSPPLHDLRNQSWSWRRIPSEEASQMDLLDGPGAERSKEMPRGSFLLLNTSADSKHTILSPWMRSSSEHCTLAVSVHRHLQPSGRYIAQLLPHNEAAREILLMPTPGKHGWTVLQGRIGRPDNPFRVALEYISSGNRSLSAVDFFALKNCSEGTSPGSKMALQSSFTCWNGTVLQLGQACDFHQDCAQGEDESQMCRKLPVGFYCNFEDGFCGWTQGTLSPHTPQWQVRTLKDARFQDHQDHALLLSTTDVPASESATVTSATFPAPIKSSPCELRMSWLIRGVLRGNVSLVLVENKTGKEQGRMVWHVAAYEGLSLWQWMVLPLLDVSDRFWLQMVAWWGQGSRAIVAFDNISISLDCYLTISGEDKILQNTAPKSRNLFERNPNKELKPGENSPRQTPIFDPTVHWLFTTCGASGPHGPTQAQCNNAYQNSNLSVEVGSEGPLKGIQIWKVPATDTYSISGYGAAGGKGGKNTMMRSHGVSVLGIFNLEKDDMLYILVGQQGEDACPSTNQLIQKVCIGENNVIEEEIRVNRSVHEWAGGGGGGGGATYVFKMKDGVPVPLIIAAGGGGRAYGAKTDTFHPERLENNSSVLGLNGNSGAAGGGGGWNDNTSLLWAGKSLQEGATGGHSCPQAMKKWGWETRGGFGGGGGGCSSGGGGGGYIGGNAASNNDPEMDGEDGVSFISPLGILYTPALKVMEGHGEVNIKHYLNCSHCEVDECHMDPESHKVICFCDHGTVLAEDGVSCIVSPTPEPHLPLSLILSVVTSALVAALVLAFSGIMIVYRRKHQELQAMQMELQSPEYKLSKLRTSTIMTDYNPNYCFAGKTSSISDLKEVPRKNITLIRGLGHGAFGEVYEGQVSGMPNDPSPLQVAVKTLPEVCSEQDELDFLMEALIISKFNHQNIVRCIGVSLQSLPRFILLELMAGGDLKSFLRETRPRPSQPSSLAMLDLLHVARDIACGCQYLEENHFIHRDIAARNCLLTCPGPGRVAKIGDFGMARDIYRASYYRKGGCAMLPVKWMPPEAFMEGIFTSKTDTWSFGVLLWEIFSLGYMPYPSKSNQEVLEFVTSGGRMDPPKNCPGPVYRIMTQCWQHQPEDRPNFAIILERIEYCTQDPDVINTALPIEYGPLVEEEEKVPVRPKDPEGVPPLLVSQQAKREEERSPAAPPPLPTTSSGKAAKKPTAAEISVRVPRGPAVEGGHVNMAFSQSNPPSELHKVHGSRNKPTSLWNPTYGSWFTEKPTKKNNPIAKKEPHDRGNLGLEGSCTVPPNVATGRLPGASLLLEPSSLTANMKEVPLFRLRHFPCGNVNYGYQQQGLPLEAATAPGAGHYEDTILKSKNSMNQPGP

pIC50 [1]: < 6.20
pIC50 [2]: 6.92
pIC50 [3]: 7.72
pIC50 [4]: 7.92
Compound: COc1cc2c(Oc3ccc(NC(=O)C4(C(=O)Nc5ccc(F)cc5)CC4)cc3F)ccnc2cc1OCCCC(=O)NO
